The values below come from US7501430B2 (ArQule, Inc., priority 2006, dated 2009).

Each structure is given as a SMILES string.

For one assay, the target named is T1, mutant B-RAF (Homo sapiens, UniProt P15056, V600E).
T1 construct: purchased Upstate (Charlottesville, Va.)
T1 sequence (P15056 whole entry V600E): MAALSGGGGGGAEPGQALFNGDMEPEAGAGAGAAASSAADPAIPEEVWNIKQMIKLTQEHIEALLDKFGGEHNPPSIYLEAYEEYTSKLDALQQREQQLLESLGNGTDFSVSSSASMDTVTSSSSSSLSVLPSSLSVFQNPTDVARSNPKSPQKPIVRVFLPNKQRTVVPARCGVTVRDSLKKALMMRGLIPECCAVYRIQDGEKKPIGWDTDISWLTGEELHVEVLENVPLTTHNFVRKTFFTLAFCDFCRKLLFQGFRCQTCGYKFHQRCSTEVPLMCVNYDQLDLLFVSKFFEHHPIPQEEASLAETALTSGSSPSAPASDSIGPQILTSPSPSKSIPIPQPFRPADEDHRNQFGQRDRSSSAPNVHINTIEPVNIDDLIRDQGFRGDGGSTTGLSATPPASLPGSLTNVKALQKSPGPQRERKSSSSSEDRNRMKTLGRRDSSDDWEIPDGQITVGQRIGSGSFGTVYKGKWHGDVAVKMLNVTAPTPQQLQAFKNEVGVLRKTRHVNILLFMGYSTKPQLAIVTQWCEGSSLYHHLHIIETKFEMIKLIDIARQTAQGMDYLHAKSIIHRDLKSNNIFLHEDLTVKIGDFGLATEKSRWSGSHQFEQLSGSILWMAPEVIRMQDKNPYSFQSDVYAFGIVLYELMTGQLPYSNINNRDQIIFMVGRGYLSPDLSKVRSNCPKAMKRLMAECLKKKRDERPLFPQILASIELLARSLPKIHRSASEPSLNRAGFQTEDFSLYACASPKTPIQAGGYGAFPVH
Description: RAF biochemical assay (MEK-1 phosphorylation, anti-phospho MEK1/2 detection).
Settings: not given
The method, boiled down:
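Detection is by ELISA: after a 30 min room-temperature reaction, plate-captured GST-MEK-1 is probed with anti-phospho MEK1/2, then an AP-tagged secondary antibody with fluorescent Attophos read-out.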
As to `Cc1ccc(S(=O)(=O)N2CCC[C@@H](Nc3nccc(-c4c(-c5ccc(F)cc5)nc5occn45)n3)C2)cc1` [Example 45, 4-[6-(4-fluorophenyl)imi-dazo[2,1-b][1,3]oxazol-5-yl]-N-{(3R)-1-[(4-methylphenyl)sulfonyl]piperidin-3-yl}pyr-imidin-2-amine], 590 nM corresponded to half-maximal inhibition (IC50).

The assay is the same for the next values; noted with them: @ 10 uM.
Regarding `COc1ccc(S(=O)(=O)N2CCC[C@@H](Nc3nccc(-c4c(-c5ccc(F)cc5)nc5occn45)n3)C2)cc1` [Example 44, 4-[6-(4-fluorophenyl)imi-dazo[2,1-b][1,3]oxazol-5-yl]-N-{(3R)-1-[(4-methoxy-phenyl)sulfonyl]piperidin-3-yl}pyrimidin-2-amine], the “Mutant B-RAF % inhibition” value is given as 45 @ 10 uM %.

The same assay, now with this note: @ 10 uM; read-out: Mutant B-RAF % inhibition.
With `COc1cccc(-c2nc3sccn3c2-c2ccnc(N[C@@H]3CCCN(C(=O)NCc4ccccc4)C3)n2)c1` [Example 80, (3R)-N-benzyl-3-({4-[6-(3-methoxyphenyl)imidazo[2,1-b][1,3]thiazol-5-yl]pyrimidin-2-yl}amino)piperidine-1-carboxamide], the inhibition (usually the relative decrease from the control value, in per cent) at 10 µM was found to be 40%. For the compound `O=C(c1ccco1)N1CCC(Nc2nccc(-c3c(-c4ccc(F)cc4)nc4occn34)n2)CC1` [Example 166, 4-[6-(4-fluorophenyl)imidazo[2,1-b][1,3]oxazol-5-yl]-N-[1-(2-furoyl)piperidin-4-yl]pyrimidin-2-amine], the inhibition at 10 µM was 76%.

Regarding `COc1ccc(OC)c(-c2nc3sccn3c2-c2ccnc(N[C@@H]3CCCN(S(=O)(=O)c4ccc(Cl)cc4)C3)n2)c1` [Example 144, N-{(3R)-1-[(4-chlorophenyl)sulfonyl]piperidin-3-yl}-4-[6-(2,5-dimethoxyphenyl)imidazo[2,1-b][1,3]thiazol-5-yl]pyrimidin-2-amine], the inhibition at 10 µM worked out at 69%.

As to `N#Cc1ccc(S(=O)(=O)N2CCC(Nc3nccc(-c4c(-c5ccc(F)cc5)nc5occn45)n3)CC2)cc1` [Example 240, 4-{[4-({4-[6-(4-fluorophenyl)imidazo[2,1-b][1,3]oxazol-5-yl]pyrimidin-2-yl}amino)piperidin-1-yl]sulfonyl}benzonitrile], the inhibition at 10 µM came out at 44%. Consider `CC(=O)NC(CO)C(=O)N1CCC(Nc2nccc(-c3c(-c4ccc(F)cc4)nc4occn34)n2)CC1` (centres unmarked) [Example 212, N-[2-[4-({4-[6-(4-fluorophenyl)imidazo[2,1-b][1,3]oxazol-5-yl]pyrimidin-2-yl}amino)piperidin-1-yl]-1-(hydroxymethyl)-2-oxoethyl]acetamide], for which the inhibition at 10 µM was found to be 43%. With `CS(=O)(=O)N1CCC(Nc2nccc(-c3c(-c4ccc(F)cc4)nc4occn34)n2)CC1` [Example 299, 4-[6-(4-fluorophenyl)imidazo[2,1-b][1,3]oxazol-5-yl]-N-[1-(methylsulfonyl)piperidin-4-yl]pyrimidin-2-amine], the inhibition at 10 µM was 55%. For `O=S(=O)(c1c(F)cccc1F)N1CCC[C@@H](Nc2nccc(-c3c(-c4ccc(F)cc4)nc4occn34)n2)C1` [Example 54, N-{(3R)-1-[(2,6-difluoro-phenyl)sulfonyl]piperidin-3-yl}-4-[6-(4-fluorophenyl)imidazo[2,1-b][1,3]oxazol-5-yl]pyrimidin-2-amine], the inhibition at 10 µM worked out at 47%. Regarding `O=C(Nc1ccc(C(F)(F)F)cc1)N1CCC(Nc2nccc(-c3c(-c4ccc(F)cc4)nc4occn34)n2)CC1` [Example 182, 4-({4-[6-(4-fluorophenyl)imidazo[2,1-b][1,3]oxazol-5-yl]pyrimidin-2-yl}amino)-N-[4-(trifluoromethyl)phenyl]piperidine-1-carboxamide], the inhibition at 10 µM is 45%.

Regarding `Cc1ccccc1S(=O)(=O)N1CCC(Nc2nccc(-c3c(-c4ccc(F)cc4)nc4occn34)n2)CC1` [Example 235, 4-[6-(4-fluorophenyl)imidazo[2,1-b][1,3]oxazol-5-yl]-N-{1-[(2-methylphenyl)sulfonyl]piperidin-4-yl}pyrimidin-2-amine], the inhibition at 10 µM was 30%. Consider `N#Cc1cccc(-c2nc3sccn3c2-c2ccnc(N[C@@H]3CCCNC3)n2)c1` [Example 125, 3-(5-{2-[(3R)-piperidin-3-ylamino]pyrimidin-4-yl}imidazo[2,1-b][1,3]thiazol-6-yl)benzonitrile], for which the inhibition at 10 µM came to 19%. Turning to `O=C(c1ccncc1)N1CCC(Nc2nccc(-c3c(-c4ccc(F)cc4)nc4occn34)n2)CC1` [Example 165, 4-[6-(4-fluorophenyl)imidazo[2,1-b][1,3]oxazol-5-yl]-N-(1-isonicotinoylpiperidin-4-yl)pyrimidin-2-amine], the inhibition at 10 µM was 33%.

In the case of `NCC(=O)N1CCC[C@@H](Nc2nccc(-c3c(-c4ccc(F)cc4)nc4occn34)n2)C1` [Example 35, N-[(3R)-1-(aminoacetyl)piper-idin-3-yl]-4-[6-(4-fluorophenyl)imidazo[2,1-b][1,3]oxazol-5-yl]pyrimidin-2-amine], the inhibition at 10 µM worked out at 11%.

For `C[C@@H](NC(=O)N1CCC[C@@H](Nc2nccc(-c3c(-c4ccc(F)cc4)nc4occn34)n2)C1)c1ccccc1` [Example 72, (3R)-3-({4-[6-(4-fluorophenyl)imidazo[2,1-b][1,3]oxazol-5-yl]pyrimidin-2-yl}amino)-N-[(1R)-1-phenylethyl]piperidine-1-carboxamide], the inhibition at 10 µM turned out to be 53%.

The assay is the same for the next values; noted with them: read-out: Mutant B-RAF IC50.
With `O=S(=O)(c1ccc(F)c(Cl)c1)N1CCC[C@@H](Nc2nccc(-c3c(-c4ccc(F)cc4)nc4occn34)n2)C1` [Example 47, N-{(3R)-1-[(3-chloro-4-fluorophenyl)sulfonyl]piper-idin-3-yl}-4-[6-(4-fluorophenyl)imidazo[2,1-b][1,3]oxazol-5-yl]pyrimidin-2-amine], the IC50 (commonly the concentration that inhibits the measured activity by half) was 963 nM. As for `O=C([C@@H]1CCCN1)N1CCC(Nc2nccc(-c3c(-c4ccc(F)cc4)nc4occn34)n2)CC1` [Example 192, 4-[6-(4-fluorophenyl)imidazo[2,1-b][1,3]oxazol-5-yl]-N-(1-L-prolylpiperidin-4-yl)pyrimidin-2-amine], the IC50 worked out at 1450 nM.

`O=S(=O)(c1ccccc1)N1CCC[C@@H](Nc2nccc(-c3c(-c4cccc(O)c4)nc4sccn34)n2)C1` [Example 372, 3-[5-(2-{[(3R)-1-(phenylsulfonyl)piperidin-3-yl]amino}pyrimidin-4-yl)imidazo[2,1-b][1,3]thiazol-6-yl]phenol]: the IC50 was 3 nM. For `COc1cccc(-c2nc3sccn3c2-c2ccnc(N[C@@H]3CCCN(S(=O)(=O)c4ccc(CCC(=O)O)cc4)C3)n2)c1` [Example 118, 3-(4-{[(3R)-3-({4-[6-(3-methoxyphenyl)imidazo[2,1-b][1,3]thiazol-5-yl]pyrimidin-2-yl}amino)piperidin-1-yl]sulfonyl}phenyl)propanoic acid], the IC50 worked out at 229 nM. Still for that read-out and setting: to `N#Cc1ccc(S(=O)(=O)N2CCC(Nc3nccc(-c4c(-c5cccc(O)c5)nc5occn45)n3)CC2)cc1` [Example 317, 4-{[4-({4-[6-(3-hydroxyphenyl)imidazo[2,1-b][1,3]oxazol-5-yl]pyrimidin-2-yl}amino)piperidin-1-yl]sulfonyl}benzonitrile] belongs 22 nM; to `O=C(NS(=O)(=O)c1ccc(Cl)cc1)N1CCC(Nc2nccc(-c3c(-c4cccc(O)c4)nc4sccn34)n2)CC1` [Example 336, N-[(4-chlorophenyl)sulfonyl]-4-({4-[6-(3-hydroxyphenyl)imidazo[2,1-b][1,3]thiazol-5-yl]pyrimidin-2-yl}amino)piperidine-1-carboxamide], 1050 nM. In the case of `COc1cccc(-c2nc3occn3c2-c2ccnc(NC3CCNCC3)n2)c1` [Example 337, 4-[6-(3-methoxyphenyl)imidazo[2,1-b][1,3]oxazol-5-yl]-N-piperidin-4-ylpyrimidin-2-amine], the IC50 was 3210 nM.

In the case of `CC(C)(C)NC(=O)N1CCC(Nc2nccc(-c3c(-c4ccc(F)cc4)nc4occn34)n2)CC1` [Example 185, N-(tert-butyl)-4-({4-[6-(4-fluorophenyl)imidazo[2,1-b][1,3]oxazol-5-yl]pyrimidin-2-yl}amino)piperidine-1-carboxamide], the IC50 was found to be 1580 nM. Consider `COc1ccc(-c2nc3sccn3c2-c2ccnc(NC3CCCN(S(=O)(=O)c4ccc(Cl)cc4)C3)n2)cc1OC` (stereo in doubt) [Example 135, N-{(3R)-1-[(4-chlorophenyl)sulfonyl]piperidin-3-yl}-4-[6-(3,4-dimethoxyphenyl)imidazo[2,1-b][1,3]thiazol-5-yl]pyrimidin-2-amine], for which the IC50 stood at 696 nM.

Consider `O=S(=O)(c1ccc(Cl)cc1)N1CC[C@@H](Nc2nccc(-c3c(-c4cccc(O)c4)nc4sccn34)n2)C1` [Example 283, 3-{5-[2-({(3R)-1-[(4-chlorophenyl)sulfonyl]pyrro-lidin-3-yl}amino)pyrimidin-4-yl]imidazo[2,1-b][1,3]thiazol-6-yl}phenol], for which the IC50 stood at 1600 nM.

For `Fc1ccc(-c2nc3sccn3c2-c2ccnc(N[C@@H]3CCCNC3)n2)cc1F` [Example 78, 4-[6-(3,4-difluorophenyl)imidazo[2,1-b][1,3]thiazol-5-yl]-N-[(3R)-piperidin-3-yl]pyrimidin-2-amine], the IC50 turned out to be 1260 nM. On to `Oc1cccc(-c2nc3sccn3c2-c2ccnc(N[C@@H]3CCCN(CC(O)COc4ccc(Cl)cc4)C3)n2)c1` (stereo partly drawn) [Example 331, 3-{5-[2-({(3R)-1-[3-(4-chlorophenoxy)-2-hydroxypropyl]piperidin-3-yl}amino)pyrimidin-4-yl]imidazo[2,1-b][1,3]thiazol-6-yl}phenol], for which the IC50 amounted to 1040 nM. Consider `COc1ccc(C(=O)N2CCC[C@@H](Nc3nccc(-c4c(-c5cccc(OC)c5)nc5sccn45)n3)C2)cc1` [Example 83, N-[(3R)-1-(4-methoxybenzoyl)piperidin-3-yl]-4-[6-(3-methoxyphenyl)imidazo[2,1-b][1,3]thiazol-5-yl]pyrimidin-2-amine], for which the IC50 was > 3000 nM.

`Cc1ccc(-c2nc3scc(C)n3c2-c2ccnc(NC3CCNCC3)n2)cc1` [Example 246, 4-[3-methyl-6-(4-methylphenyl)imidazo[2,1-b][1,3]thiazol-5-yl]-N-piperidin-4-ylpyrimidin-2-amine]: the IC50 was > 10000 nM.
